Measured values reported in publication PMC6270814, “Effects of Ursolic Acid Derivatives on Caco-2 Cells and Their Alleviating Role in Streptozocin-Induced Type 2 Diabetic Rats” (Molecules, 2014).

Legend:
GLUT-2 = assay: Western blot of GLUT-2 protein expression in Caco-2 cells; type: cell-based, Human; settings: 100 μM, 6 h
Description: (§1) Caco-2 cells were cultured on 6-well plates at a density of 1 × 10^6 cells/well for 13 days. The cells were placed in serum-free medium for 24 h prior to the treatment. Then UA and its derivatives (100 μM) were added, after 6 h incubation, the cells were immediately washed three times with ice-cold PBS and lysed in 200 μL lysis buffer. Cells were allowed to lyse on ice, and then scraped, vortexed, sonicated and stored at −80 °C for further analysis. Protein concentrations were determined as described and cell lysate was subjected to western blot analysis. Briefly, proteins with same amount were denatured in sample buffer, separated on 8% SDS-PAGE gel, and transferred onto a polyvinylidene diflouride membrane. The membranes were blocked for 1 h at 37 °C with 10% defatted milk in Tris-buffered saline (10 mM Tris-HCl, pH 7.5 and 137 mM NaCl) containing 0.05% Tween 20 (TBST). Membranes were then incubated overnight at 4 °C in blocking buffer with antibodies for GLUT-2, SGLT-1 and β-actin (EMD, Millipore, Billerica, MA, USA). Membranes were washed with TBST and incubated 1 h with appropriate secondary antibodies. Revelation was performed by using the enhanced chemiluminescence reagent and blue-light sensitive film. Densitometric analysis of films was performed with a Hewlett-Packard scanner equipped with a transparent adaptor and UN-SCAN-IT software.

[1] = system: STZ-induced diabetic rats; assay: Serum lipid profile (TG, TC, LDL-C, HDL-C) in STZ-induced diabetic rats; type: in vivo, rat; settings: 4 weeks, compounds 100 mg/kg, glibenclamide 10 mg/kg
Description: (§2) Diabetes was induced by a single intraperitoneal injection of streptozotocin (Sigma-Aldrich, St. Louis, MO, USA) at a dose of 65 mg/kg body weight. STZ was dissolved in 0.1 M cold citrate buffer, pH 4.5. Control group were injected with citrate buffer alone. After 7 days for the development of diabetes, plasma glucose levels were determined of each rat. Rats with fasting blood glucose (FBG) range of above 16.7 mmol/L were considered as DM rats and were used for further study.
(§3) According to the body weight and plasma glucose levels the rats were divided randomly into seven groups with six rats each and treated as follows: • Group I: Normal rats treated with 0.5% CMC-Na (2 mL/200 g body weight). • Group II: Diabetic rats treated with 0.5% CMC-Na. • Group III: Diabetic rats treated with 10 mg/kg of glibenclamide. • Group IV: Diabetic rats treated with 100 mg/kg of compound 1 (UA). • Group V: Diabetic rats treated with 100 mg/kg of compound 10. • Group VI: Diabetic rats treated with 100 mg/kg of compound 11. • Group VII: Diabetic rats treated with 100 mg/kg of compound 12.
(§4) The treatment was continued daily for 28 days. Blood glucose levels and body weight were measured every week to ascertain the status of diabetes. After 4 weeks of treatment, the animals were fasted for 12 h and sacrificed by cervical dislocation under mild anaesthetization, blood was collected into heparinized tubes and centrifuged at 2,000 rpm for 10 min. Livers and kidneys were removed, washed and homogenized in ice-cold normal saline. This homogenates were centrifuged at 3,000 rpm for 10 min at 4 °C, and the supernatants were collected for the estimate of antioxidant markers.
(§5) Fasting blood glucose levels were estimated on days 0, 7, 14, 28 with the single touch glucometer (Life Scan, Johnson & Johnson Company, New Brunswick, NJ, USA). Serum insulin level was measured by use of a commercial immunoassay kit by enzyme linked immunosorbent assay (Uscn. Life Science Inc., Wuhan, China). Serum total protein, albumin, triglycerides (TG), total cholesterol (TC), high-density lipoprotein cholesterol (HDL-C), and low-density lipoprotein cholesterol (LDL-C) were measured with an automatic biochemical analyzer (Sinnowa D240, Nanjing, China).

[2] = system: STZ-induced diabetic rats; assay: Body weight and daily food intake of STZ-induced diabetic rats; type: in vivo, rat
Description: as §2, §3, §4

[3] = system: STZ-induced diabetic rats; assay: Serum biochemical parameters (insulin, total protein, albumin) in STZ-induced diabetic rats; type: in vivo, rat; settings: 4 weeks, compounds 100 mg/kg, glibenclamide 10 mg/kg
Description: as §2, §3, §4, §5

SGLT-1 = assay: Western blot of SGLT-1 protein expression in Caco-2 cells; type: cell-based, Human; settings: 100 μM, 6 h
Description: as §1, with “The membranes were blocked for 1 h at 37 °C with 10% defatted milk in Tris-buffered saline (10 mM Tris-HCl, pH 7.5 and 137 mM NaCl) containing 0.05% Tween 20 (TBST).” left out

[4] = system: STZ-induced diabetic rats; assay: Oxidative stress markers (GSH, SOD, MDA) in liver and kidney of STZ-induced diabetic rats; type: in vivo, rat; settings: 4 weeks
Description: as §2, §3, §4
The tissue homogenates of liver and kidney were used for the estimate of antioxidant markers. Glutathione (GSH) level was measured with 5, 5'-dithiobis-(2-nitrobenzoic acid) (DTNB) as described by Sedlak and Lindsay. Superoxide dismutase (SOD) activity was assessed according to the method of Sinha. Malondialdehyde (MDA) activity was estimated with the thiobarbituric acid method.

[5] = system: STZ-induced diabetic rats; assay: Fasting blood glucose in STZ-induced diabetic rats, 4 weeks treatment; type: in vivo, rat
Description: Adult male albino rats of Sprague-Dawley rats (180–220 g) were obtained from the Guangdong Medical Lab Animal Center, and maintained under standard laboratory conditions in a temperature (25–30 °C) and light-controlled (12-h light/dark cycle) room with 35%–60% humidity. The animals were acclimatized for 10 days before the experiments and provided with rodent chow and water ad libitum. The investigation was conducted in accordance with the Guide for the Care and Use of Laboratory Animals and approved by the institutional Animal Ethics Committee.
as §2, §3, §4, §5

CCC(=O)O[C@H]1CC[C@@]2(C)C(CC[C@]3(C)C2CC=C2C4[C@@H](C)[C@H](C)CC[C@]4(C(=O)O)CC[C@]23C)C1(C)C (stereo partly drawn) [Compound 10]
effect on expression of protein GLUT-2 (GLUT-2): significant effects on reducing | serum TC level vs diabetic control [1]: significantly decreased | serum TG level vs diabetic control [1]: significantly decreased | daily food intake vs untreated diabetic rats ([2]; compounds 100 mg/kg, glibenclamide 10 mg/kg, oral): reduce daily food intake significantly | body weight vs diabetic control ([2]; end of the treatment period, 100 mg/kg): significant increase | serum albumin level vs diabetic control [3]: increased significantly | serum insulin level vs diabetic control [3]: increased significantly | serum total protein level vs diabetic control [3]: increased significantly | effect on protein expression of SGLT-1 (SGLT-1): significantly reduce | SOD level in the liver and kidney ([4]; liver and kidney of STZ diabetic rats): great improvement | GSH level in liver ([4]; liver of STZ diabetic rats): significant effects | MDA level in the liver ([4]; liver of STZ diabetic rats, daily administration): obviously down-regulated | Fasting Blood Glucose Level, Week 0 ([5]; STZ diabetic rats, Week 0 (before treatment), compounds 100 mg/kg, glibenclamide 10 mg/kg, n = 6): 320.40 ± 12.96 mg/dL | Fasting Blood Glucose Level, Week 1 ([5]; STZ diabetic rats, Week 1, compounds 100 mg/kg, glibenclamide 10 mg/kg daily, n = 6): 270.00 ± 16.74 mg/dL | Fasting Blood Glucose Level, Week 2 ([5]; STZ diabetic rats, Week 2, compounds 100 mg/kg, glibenclamide 10 mg/kg daily, n = 6): 286.20 ± 18.90 mg/dL | Fasting Blood Glucose Level, Week 3 ([5]; STZ diabetic rats, Week 3, compounds 100 mg/kg, glibenclamide 10 mg/kg daily, n = 6): 234.00 ± 14.58 mg/dL | Fasting Blood Glucose Level, Week 4 ([5]; STZ diabetic rats, Week 4, compounds 100 mg/kg, glibenclamide 10 mg/kg daily, n = 6): 225.00 ± 11.70 mg/dL | decrease in blood glucose levels as compared with diabetic control ([5]; end of the 4 week treatment, compound 10 100 mg/kg, glibenclamide 10 mg/kg): 49.6%
